ChEMBL document CHEMBL1201862, “PubChem BioAssay data set” (2004)
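96-well plates; 48 h exposure; 5 concentrations. Endpoints by linear interpolation between flanking doses. Not reached: highest tested concentration assigned. The concentration for 50% growth inhibition is given as GI50.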 Activity calls are given as the source filed them. No stated cut-off is given here; in the data, active = GI50 up to about 1.1 µM and inactive = higher.

Legend:
Assay in all cases: NCI-60 cell line screen, 48 h
OVCAR-4 = system: OVCAR-4
UO-31 = system: UO-31
COLO 205 = system: COLO 205
786-0 = system: 786-0
SW-620 = system: SW-620
TK-10 = system: TK-10
Hs-578T = system: Hs-578T
NCI-H226 = system: NCI-H226
A498 = system: A498
MOLT-4 = system: MOLT-4
UACC-257 = system: UACC-257
Malme-3M = system: Malme-3M
OVCAR-5 = system: OVCAR-5
MDA-MB-231 = system: MDA-MB-231
UACC-62 = system: UACC-62
ACHN = system: ACHN
RPMI-8226 = system: RPMI-8226
HL-60 = system: HL-60
A549 = system: A549
NCI-H522 = system: NCI-H522

Structure (SMILES)	GI50 (OVCAR-4)	GI50 (UO-31)	GI50 (COLO 205)	GI50 (786-0)	GI50 (SW-620)	GI50 (TK-10)	GI50 (Hs-578T)	GI50 (NCI-H226)	GI50 (A498)	GI50 (MOLT-4)	GI50 (UACC-257)	GI50 (Malme-3M)	GI50 (OVCAR-5)	GI50 (MDA-MB-231)	GI50 (UACC-62)	GI50 (ACHN)	GI50 (RPMI-8226)	GI50 (HL-60)	GI50 (A549)	GI50 (NCI-H522)
NCc1ccccc1.O=C(O)NCc1ccccc1	25.1 µM (inactive)	24.3 µM (inactive)	19.3 µM (inactive)	36.3 µM (inactive)	34.8 µM (inactive)	31.4 µM (inactive)	26.1 µM (inactive)	30.1 µM (inactive)	29 µM (inactive)	18.8 µM (inactive)	32 µM (inactive)	27.4 µM (inactive)	30.1 µM (inactive)	10.3 µM (inactive)	15.1 µM (inactive)	35.9 µM (inactive)	12.6 µM (inactive)	26.7 µM (inactive)	34.9 µM (inactive)	21.8 µM (inactive)
CN(C)c1ccc(Cc2cc3c(O)ccc(O)c3cc(Cc3ccc(N(C)C)cc3)c2=O)cc1	18.1 µM (inactive)	13.1 µM (inactive)	16.1 µM (inactive)	16 µM (inactive)	13.6 µM (inactive)	18.6 µM (inactive)	44.3 µM (inactive)	24.7 µM (inactive)	46.1 µM (inactive)	2.92 µM (inactive)	21.1 µM (inactive)	20.3 µM (inactive)	> 43.9 µM (inactive)	20.1 µM (inactive)	26 µM (inactive)	12.5 µM (inactive)	6.25 µM (inactive)	3.04 µM (inactive)	30.5 µM (inactive)	3.73 µM (inactive)
NCCN1C(=O)CN=C(c2ccc(Cl)cc2)c2cc(Cl)ccc21	16.2 µM (inactive)	13.9 µM (inactive)	19.3 µM (inactive)	15.9 µM (inactive)	15.7 µM (inactive)	16.1 µM (inactive)	16.1 µM (inactive)	14 µM (inactive)	19.1 µM (inactive)	0.46 µM (active)	19 µM (inactive)	14.2 µM (inactive)	15.7 µM (inactive)	14.3 µM (inactive)	17.9 µM (inactive)	18.7 µM (inactive)	17.6 µM (inactive)	16 µM (inactive)	17.1 µM (inactive)	16.1 µM (inactive)
Cc1cn([C@@H]2C[C@@H]2CO)c(=O)[nH]c1=O	> 100 µM (inactive)	> 100 µM (inactive)	> 100 µM (inactive)	> 100 µM (inactive)	> 100 µM (inactive)	> 100 µM (inactive)	> 100 µM (inactive)	> 100 µM (inactive)	> 100 µM (inactive)	> 100 µM (inactive)	> 100 µM (inactive)	> 100 µM (inactive)	> 100 µM (inactive)	> 100 µM (inactive)	> 100 µM (inactive)	> 100 µM (inactive)	> 100 µM (inactive)	> 100 µM (inactive)	> 100 µM (inactive)	> 100 µM (inactive)
CCN(CC)CCNc1nc(N)c(C#N)c(C#N)c1C#N	> 10 µM (inactive)	> 10 µM (inactive)	> 10 µM (inactive)	> 10 µM (inactive)	> 10 µM (inactive)	> 10 µM (inactive)	> 10 µM (inactive)	> 10 µM (inactive)	> 10 µM (inactive)	> 10 µM (inactive)	> 10 µM (inactive)	> 10 µM (inactive)	> 10 µM (inactive)	> 10 µM (inactive)	> 10 µM (inactive)	> 10 µM (inactive)	> 10 µM (inactive)	> 10 µM (inactive)	> 10 µM (inactive)	> 10 µM (inactive)
O=C1OC2C(O)COC2(O)C1(O)C(C[N+](=O)[O-])c1ccc(Cl)cc1 (stereo not given)	8.45 µM (inactive)	8.79 µM (inactive)	3.84 µM (inactive)	1.82 µM (inactive)	2.71 µM (inactive)	12.5 µM (inactive)	13.4 µM (inactive)	11.6 µM (inactive)	4.8 µM (inactive)	2.6 µM (inactive)	6.68 µM (inactive)	16.3 µM (inactive)	16.4 µM (inactive)	30.2 µM (inactive)	10 µM (inactive)	12.4 µM (inactive)	0.959 µM (active)	1.76 µM (inactive)	16.5 µM (inactive)	9.27 µM (inactive)
CCOC(=O)c1cccc([N+](=O)[O-])c1N	> 100 µM (inactive)	> 100 µM (inactive)	> 100 µM (inactive)	> 100 µM (inactive)	> 100 µM (inactive)	> 100 µM (inactive)	41.2 µM (inactive)	> 100 µM (inactive)	66.2 µM (inactive)	> 100 µM (inactive)	> 100 µM (inactive)	19.1 µM (inactive)	> 100 µM (inactive)	> 100 µM (inactive)	> 100 µM (inactive)	> 100 µM (inactive)	> 100 µM (inactive)	> 100 µM (inactive)	> 100 µM (inactive)	> 100 µM (inactive)
CCCCNC1CCC2(SCCS2)c2[nH]c3ccccc3c21 (stereo not given)	> 54.1 µM (inactive)	20.4 µM (inactive)	17.5 µM (inactive)	4.53 µM (inactive)	25.8 µM (inactive)	13.2 µM (inactive)	29.8 µM (inactive)	42 µM (inactive)	20.8 µM (inactive)	3.97 µM (inactive)	4.09 µM (inactive)	16.5 µM (inactive)	59.7 µM (inactive)	16.6 µM (inactive)	20.2 µM (inactive)	27.9 µM (inactive)	1.77 µM (inactive)	3.16 µM (inactive)	56.9 µM (inactive)	8.61 µM (inactive)
O=C(C1OC1c1cccc([N+](=O)[O-])c1)C12CC3CC(CC(C3)C1)C2 (stereo not given)	4.27 µM (inactive)	8.26 µM (inactive)	9.89 µM (inactive)	2.69 µM (inactive)	2.97 µM (inactive)	18.1 µM (inactive)	3.66 µM (inactive)	10.5 µM (inactive)	5.13 µM (inactive)	2.82 µM (inactive)	11.7 µM (inactive)	13.7 µM (inactive)	7.21 µM (inactive)	4.83 µM (inactive)	3.74 µM (inactive)	9.59 µM (inactive)	2.13 µM (inactive)	2.43 µM (inactive)	12.9 µM (inactive)	3.81 µM (inactive)
CCSCCCCC(c1ccc(O)cc1)C(C)(CC)c1ccc(O)cc1 (stereo not given)	21.7 µM (inactive)	19.6 µM (inactive)	20.4 µM (inactive)	24.4 µM (inactive)	21.4 µM (inactive)	17.4 µM (inactive)	23.6 µM (inactive)	17.9 µM (inactive)	> 100 µM (inactive)	32.1 µM (inactive)	22.2 µM (inactive)	20.3 µM (inactive)	24.4 µM (inactive)	21.7 µM (inactive)	27.2 µM (inactive)	18.6 µM (inactive)	19.5 µM (inactive)	> 100 µM (inactive)	25.4 µM (inactive)	17.7 µM (inactive)
